Results: PMC3045540 (Molecular and biochemical parasitology, 2010)
Read-outs that look alike come from different tables or passages of the source.

Assays:
[1] = target: LmajFGSK-3 (LmajGSK-3 short Y102F mutant) (Leishmania major, UniProt Q4QE15, Y102F); experiment: biochemical; assay type: biochemical, L. major
[2] = target: HsGSK-3β (Homo sapiens, UniProt P49841); experiment: Kinase-Glo assay, inhibition of human GSK-3β; assay type: biochemical; conditions: read-out: Mean IC50 (SD), HsGSK-3b; 3.2 μM BioGSP-2, 2 μM ATP, 90 minutes at 30°C
Sequence of HsGSK-3β (P49841 whole entry): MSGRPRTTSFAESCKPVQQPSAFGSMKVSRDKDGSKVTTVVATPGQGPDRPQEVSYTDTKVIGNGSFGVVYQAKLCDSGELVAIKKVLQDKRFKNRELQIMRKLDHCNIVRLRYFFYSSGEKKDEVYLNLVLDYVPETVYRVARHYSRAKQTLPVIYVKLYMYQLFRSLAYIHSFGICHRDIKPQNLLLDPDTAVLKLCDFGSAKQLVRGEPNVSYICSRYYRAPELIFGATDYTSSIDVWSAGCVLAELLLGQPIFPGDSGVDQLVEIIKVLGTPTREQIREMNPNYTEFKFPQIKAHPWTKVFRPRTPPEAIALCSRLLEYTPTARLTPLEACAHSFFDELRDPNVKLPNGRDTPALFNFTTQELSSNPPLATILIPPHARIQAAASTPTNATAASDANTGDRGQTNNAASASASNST

[3] = target: LinfGSK-3 short (Leishmania infantum, UniProt A4HXQ3); experiment: biochemical; assay type: biochemical, L. infantum; conditions: for mode of inhibition of LinfGSK-3 short (velocity at different ATP concentrations): Fig. 3A
[4] = target: LmajGSK-3 short (Leishmania major, UniProt Q4QE15); experiment: biochemical; design: species or system L. major
[5] = target: LmajEGSK-3 (LmajGSK-3 short D105E mutant) (Leishmania major, UniProt Q4QE15, D105E); experiment: biochemical; assay type: biochemical, L. major
[6] = target: TbruGSK-3 short (Trypanosoma brucei brucei, UniProt Q388M1); experiment: biochemical; assay type: biochemical, T. brucei
[7] = target: LmajEFGSK-3 (LmajGSK-3 short Y102F and D105E double mutant) (Leishmania major, UniProt Q4QE15, D105E/Y102F); experiment: biochemical; design: species or system L. major
[8] = read-out: Mean IC50 (SD), LmajFGSK-3, Y102F mutant, 8.2 nM enzyme, 3.2 μM BioGSP-2, 2 μM ATP, 90 minutes at 30°C

Q: `N#CCCc1ccc2c(c1)-c1[nH]c3ccc([N+](=O)[O-])cc3c1CC(=O)N2` [Alster-paullone, 2-cyanoethyl] was tested. Which IC50 [1, 8] did it give?
A: 310 nM

Q: What about the IC50 [2] of the same compound?
A: 20 nM

Q: Which IC50 [1, 8] does the source give for `O=C1Nc2ccccc2/C1=C/c1cnc[nH]1` [Angio-genesis inhibitor] here?
A: 8470 nM

Q: What about the IC50 [2] of the same compound?
A: 1620 nM

Q: Which “Mean IC50 (SD), LinfGSK-3” value ([3]; 2.8 nM enzyme, 3.2 μM BioGSP-2, 2 μM ATP, 90 minutes at 30°C) does the source give for `COc1ccc(CNC(=O)Nc2ncc([N+](=O)[O-])s2)cc1` [GSK-3β Inhibitor VIII] here?
A: no activity

Q: What about the “Mean IC50 (SD), LmajGSK-3” value ([4]; 8.2 nM enzyme, 3.2 μM BioGSP-2, 2 μM ATP, 90 minutes at 30°C) of the same compound?
A: no activity

Q: What about the “Mean IC50 (SD), LmajEGSK-3” value ([5]; D105E mutant, 8.2 nM enzyme, 3.2 μM BioGSP-2, 2 μM ATP, 90 minutes at 30°C) of the same compound?
A: no activity

Q: What about the “Mean IC50 (SD), LmajFGSK-3” value ([1]; Y102F mutant, 8.2 nM enzyme, 3.2 μM BioGSP-2, 2 μM ATP, 90 minutes at 30°C) of the same compound?
A: no activity

Q: What does the source list for `O=C1Nc2ccc3ncsc3c2/C1=C/Nc1ccc(S(=O)(=O)Nc2ccccn2)cc1` [GW8510]?
A: mode of inhibition of LinfGSK-3 short (velocity at different ATP concentrations) [3]: ATP competitive; IC50 ([3]; read-out: IC50 value for LinfGSK-3 short): 628 nM; IC50 ([6]; read-out: IC50 value for TbruGSK-3 short): 21 nM; effect of mutation D105E of LmajGSK-3 short on sensitivity to inhibition ([5]; relative to wild type LmajGSK-3 short): ~2 fold; IC50 ([1]; read-out: IC50 value for the LmajGSK-3 short Y102F mutant): 93 nM; IC50 [1, 8]: 90 nM; IC50 [2]: 20 nM

Q: For `NC1=NC(=O)/C(=C2\CCNC(=O)c3[nH]c(Br)cc32)N1` [Hymeni-aldisine, Stylissa dami-cornis, Hymenialdisine], which IC50 [3] is on record?
A: 18200 nM

Q: And the IC50 [6]?
A: 3950 nM

Q: What about the IC50 [4] of the same compound?
A: 13100 nM

Q: What about the IC50 [5] of the same compound?
A: 10400 nM

Q: And the IC50 [1]?
A: 16100 nM

Q: And the IC50 [7]?
A: 9250 nM

Q: Which results are given for `O=C1Nc2ccc(S(=O)(=O)O)cc2C1=C1Nc2ccccc2C1=NO` [Indirubin-3'-monoxime-5-sulphonic Acid]?
A: IC50 [1, 8]: 930 nM; IC50 [2]: 60 nM

Q: Which IC50 [1, 8] does the source give for `Cn1cc(C2=C(c3cn(CCCN)c4ccccc34)C(=O)NC2=O)c2ccccc21` [Ro-31-7549] here?
A: 1080 nM

Q: And the IC50 [2]?
A: 4 nM

Q: Which results are given for `COc1ccc2c(c1)/C(=C/c1cnc[nH]1)C(=O)N2` [SU9516]?
A: IC50 [3]: 1870 nM; IC50 [6]: 590 nM; IC50 [4]: 3040 nM; IC50 [5]: 3150 nM; IC50 [1]: 1400 nM; IC50 [7]: 1290 nM

Q: Cdk1/2 Inhibitor III was tested. Which “mode of inhibition of LinfGSK-3 short (velocity at different ATP concentrations)” value [3] did it give?
A: ATP competitive

Q: What about the IC50 [1, 8] of the same compound?
A: 150 nM

Q: And the IC50 [2]?
A: 210 nM
